The numbers were not newly measured in patent US9075045B2, “Cell-based detection of APF through its interaction with CKAP4 for diagnosis of interstitial cystitis” (THE COMMONWEALTH MEDICAL COLLEGE, priority 2008, dated 2015), which cites them from elsewhere.

Like-named read-outs stand apart in the source and are kept apart here.

For the molecule Bacillus Calmette-Guerin, under “intravesicular agent”, the “effect on IC symptoms” value is on record as “improve symptoms”.
As to Pentosan polysulfate sodium, for the setting “given orally (100 mg three times a day)”, the “improved symptoms in % of patients” value is on record as 30%.
Regarding `C[S+](C)[O-]` [dimethyl sulfoxide], for the setting “bladder instillation every week or two for 6 to 8 weeks”, the “effect on IC symptoms” value is listed as “improve symptoms temporarily”.
